{"source": "ChEMBL document CHEMBL1142102", "about": "“Cytotoxic germacrane-type sesquiterpenes, pimarane-type diterpenes, and a naphthalene derivative from Wollastonia biflora” (J Nat Prod, 2007)", "data": [{"assay": "Cytotoxicity against human BEL-7402 cells after 72 hrs by SRB assay", "format": "cell-based", "details": "Bel-7402, 72 h", "units": {"IC50": "µM"}, "values": [{"compound": "C=C(C)C(=O)O[C@@H]1C[C@H](CO)CC/C=C(/C=O)C[C@H]2OC(=O)C(=C)[C@H]12", "IC50": 1.5}, {"compound": "C=C(C)C(=O)O[C@@H]1C[C@H](CO)CC/C=C(/CO)C[C@H]2OC(=O)C(=C)[C@H]12", "IC50": 1.72}, {"compound": "C=C1C(=O)O[C@@H]2C/C(CO)=C\\CC[C@@H](CO)C[C@@H](OC(=O)/C(C)=C\\C)[C@@H]12", "IC50": 3}]}]}
